According to patent US20250308265A1, “METHODS AND SYSTEMS FOR CHARACTERIZING MORPHODYNAMIC PROFILES OF OBJECTS” (The Chancellor, Masters and Scholars of the University of …, priority 2022, published 2025):
Read-outs that look alike come from different tables or passages of the source.

Experiments:
[1] = tested on: normal patient-derived duodenal organoids; experiment: Chemotherapy drug toxicity screen with human duodenum organoids, label-free timelapse imaging analysed by SPOT; conditions: for phenotype cluster frequency over time (stacked barplots): 5 days
Method: Organoids were plated onto 96 well plates as follows. Using ice-cold PBS, the organoids were retrieved from the Matrigel and briefly microcentrifuged. To aid organoid dissociation, the pellet was vigorously resuspended in Trypsin and incubated at 37° C. for 10 min to ensure a high degree of dissociation. The organoid fragments were then briefly microcentrifuged and resuspended in 200 μL of Matrigel. The resuspended organoids were then kept on ice to prevent gelation of the Matrigel. Then, 2 μL of the organoid suspension was seeded inside each well. During this process, the organoid-Matrigel mix was resuspended every 12 wells to ensure an even mix. The Matrigel was allowed to gelate at room temperature for 5 min. Once the Matrigel solidified, 100 μL of human organoid medium, pre-warmed at 37° C. to prevent the detachment of the Matrigel, was then overlaid and replaced every 2 days. Once the organoids had grown for 6 days inside the 96-well plate, the medium was removed by inversion and washed with pre-warmed PBS at 37° C. After removing the PBS by inversion, the wells were filled with 100 μL of human organoid medium (HOM) with a titration of chemotherapy drugs. […] These concentrations were based on the previously published screening concentrations (van de Wetering, M. et al. Cell 161, 933-945 (2015)). All drugs were solubilized and diluted with DMSO. The different conditions were filmed on a Nikon microscope for 120 h at a frequency of 1 image per hour with a 2× objective.
Human duodenum organoids were harvested and dissociated into single cells following the passaging procedure described above. Cell pellets were resuspended in 500 μL of PBS. Cells were filtered through the cell strainer (70 μm) and counted with the automated cell counter (BIO-RAD). The appropriate cell dilutions were made in GFR Matrigel. Then, the cells were seeded in a pre-warmed 96-well black tissue culture-treated (TC-treated) sterile microplate (PerkinElmer), and plates were incubated for 10 min in a cell culture incubator at 37° C. and 5% CO2 to solidify the Matrigel. Human duodenum organoid culture media (HOM, Table 9) was added to each well (200 μL) and refreshed every other day. For WNT experiments, before performing timelapse video collection, the HOM media was changed to ENR (EGF, Noggin, R-spondin only) for the ENR imaging conditions. Specifically, group HOM organoids were cultured in HOM culture medium for 14 days. Group ENR+WNT3A (day 3) organoids were under ENR treatment for 3 days and then ENR+Wnt3A for 11 days. Group ENR+WNT3A (day 6) organoids were under ENR treatment for 6 days and then ENR+Wnt3a for the next 8 days. Group ENR+Wnt3A (day 9) organoids were under ENR treatment for 9 days and then under ENR+Wnt3A treatment for 5 days. Group ENR organoids were under ENR treatment for 14 days. All images were acquired using a Nikon TE 2000-E Eclipse inverted microscope, with a 10×/0.3 NA Plan Fluor Ph1 objective. The system was maintained at 37° C. in the presence of 5% CO2. Z-stack images 1000 μm in depth were acquired at 100 μm intervals (11 steps per acquisition) approximately every 60 min for 5 days (chemotherapy drug screen) and 14 days (WNT addition experiments).
Multicellular structures, such as organoids, have emerged as attractive experimental models. Further, the complex spatiotemporal dynamics of organoids are underlined by the cells' genetic makeup, cell/cell interactions, and the constituent cells' responses to environmental perturbations. SPOT's potential was therefore tested to measure the spatiotemporal dynamics of organoids using normal patient-derived duodenal organoids grown in a 96-well plate and imaged label-free. The entire SPOT workflow was applied to measure organoid response to eight chemotherapy drugs at three different concentrations. 60-100 organoids were seeded per well, and all organoids were filmed every hour for 5 days (stage 1).

human duodenum organoids [2] = experiment: Delayed WNT3A restoration to ENR-cultured human duodenum organoids, timelapse imaging analysed by SPOT; type: cell-based
Method: Cell pellets were resuspended in 500 μL of PBS. […] The appropriate cell dilutions were made in GFR Matrigel.
The observed flattening phenotype is visually reminiscent of Apc^min/+ murine colon organoids. However, the role of WNT on the morphodynamic changes of human organoids was unexpected. Whereas Apc^min/+ organoids should have high WNT signaling, ENR medium lacks WNT. To test the direct impact of WNT on the morphological changes of human duodenum organoids, WNT3A, a potent inducer of WNT signaling, was added to the ENR medium at day 3, 6, and 9 after the initial transfer of human duodenum organoids to ENR. […] To quantify the impact of WNT3A restoration, all organoids were grown in 96-well plates for 7 days, and live-cell images were captured every hour for the next 14 days (FIG. 5c). The spatiotemporal dynamics of a library of >500,000 segmented organoid instances over all timepoints and videos were analyzed by SPOT in the same manner as mouse colon organoids, and the organoids were subsequently classified into one of 7 phenotype clusters. Quantifying the expression of representative SAM features, as expected, organoids cultured in HOM were large and spherical, shown by enriched distribution of yellow cluster 6.

human duodenum organoids [3] = experiment: scRNA-seq of human duodenum organoids (HOM, ENR, ENR+WNT3A); type: cell-based; conditions: restoring WNT3A
From the text: Organoids were individually seeded onto a 24-well plate and cultured for 7 days before treatment as described above.
For scRNA-seq, Group HOM was collected after the initial 7 days' culture before further treatment, that is day 0 of the timelapse acquisition. […] Group ENR organoids were under ENR treatment for a total of 3, 6, and 9 days, respectively, then collected. After being harvested, the organoids were processed in the same manner as for murine organoids.
To understand the molecular basis of WNT depletion-induced morphodynamic changes, scRNA-seq was also performed on the human duodenum organoids cultured under conditions and timescales identical to those used for the SPOT analysis. In total, 8763 single cell transcriptomes were generated. […] Examining the expression of WNT, YAP targets, fetal and RSC signatures in organoid-derived cells as a function of the time of WNT3A rescue, it is evident that there is an inverse association between high WNT and high YAP target-expressing cells. Also, the kinetics of RSC signature expression levels coincide with the extent of phenotypic changes detected by SPOT. Thus, WNT-deprived ENR medium induces RSCs that lead to the development of morphologically irregular and flattened organoids.

O=c1[nH]cc(F)c(=O)[nH]1 [5-fluorouracil]
relative toxicity [1]: lower relative toxicity
temporal phenotype trajectory [1]: milder toxicity
phenotype cluster frequency over time (stacked barplots) [1]: approximately maintain the fraction of the cluster 2 large spherical organoid phenotype

CC(=O)O[C@@]12CO[C@@H]1C[C@H](O)[C@@]1(C)C(=O)[C@H](O)C3=C(C)[C@@H](OC(=O)[C@H](O)[C@@H](NC(=O)OC(C)(C)C)c4ccccc4)C[C@@](O)([C@@H](OC(=O)c4ccccc4)[C@H]21)C3(C)C [docetaxel, Docetaxel]
HMM cluster transition pattern [1]: conserved cluster transition pattern

COc1cccc2c1C(=O)c1c(O)c3c(c(O)c1C2=O)C[C@@](O)(C(=O)CO)C[C@@H]3O[C@H]1C[C@H](N)[C@@H](O)[C@H](C)O1 [epirubicin, Epirubicin]
HMM cluster transition pattern [1]: conserved cluster transition pattern
temporal phenotype trajectory [1]: opposing trajectory from top to bottom

COc1cc2ncnc(Nc3ccc(F)c(Cl)c3)c2cc1OCCCN1CCOCC1 [gefitinib, Gefitinib]
relative toxicity [1]: lower relative toxicity
temporal phenotype trajectory [1]: milder toxicity
phenotype cluster frequency over time (stacked barplots) [1]: approximately maintain the fraction of the cluster 2 large spherical organoid phenotype

CCc1c2c(nc3ccc(OC(=O)N4CCC(N5CCCCC5)CC4)cc13)-c1cc3c(c(=O)n1C2)COC(=O)[C@]3(O)CC [irinotecan, Irinotecan]
HMM cluster transition pattern [1]: loses the autoregulatory loop of cluster 2
temporal phenotype trajectory [1]: opposing trajectory from top to bottom

O=C1[O][Pt]2([NH][C@@H]3CCCC[C@H]3[NH]2)[O]C1=O [oxaliplatin, Oxaliplatin]
impact on organoid morphology (UMAP density heatmaps) ([1]; all three concentrations, highest: cisplatin 6, oxaliplatin 20, mitomycin C 0.03, 5-fluorouracil 20, gefitinib 0.5, irinotecan 5, docetaxel 0.0125, epirubicin 4.5 μM, vs DMSO control): limited impact on organoid morphology
temporal phenotype trajectory ([1]; compared with DMSO trajectory): Predominant organoid growth
relative toxicity ([1]; final timepoints, maximum concentration, 5 days filming): lower relative toxicity

B1: WNT3A: a potent inducer of WNT signaling, added to the ENR medium (protein, UniProt P56704 19-352, looked up)
Protein Wnt-3a: SYPIWWSLAVGPQYSSLGSQPILCASIPGLVPKQLRFCRNYVEIMPSVAEGIKIGIQECQHQFRGRRWNCTTVHDSLAIFGPVLDKATRESAFVHAIASAGVAFAVTRSCAEGTAAICGCSSRHQGSPGKGWKWGGCSEDIEFGGMVSREFADARENRPDARSAMNRHNNEAGRQAIASHMHLKCKCHGLSGSCEVKTCWWSQPDFRAIGDFLKDKYDSASEMVVEKHRESRGWVETLRPRYTYFKVPTERDLVYYEASPNFCEPNPETGSFGTRDRTCNVSSHGIDGCDLLCCGRGHNARAERRREKCRCVFHWCCYVSCQECTRVYDVHTCK
impact on phenotype rescue (proportion of irregularly shaped to spherical organoids) (human duodenum organoids [2]; WNT3A restored on day 3): biggest impact
organoid growth (cluster 6) (human duodenum organoids [2]; WNT3A restored on day 3): increased
percentage of irregularly shaped organoids (cluster 7) (human duodenum organoids [2]; WNT3A restored on day 3): substantially reduced
temporal phenotype trajectory (human duodenum organoids [2]; WNT3A restored on day 3): close overlap between day 3 WNT3A restoration and HOM conditions
HMM cluster transition graph (human duodenum organoids [2]; WNT3A restored on day 6): best reflects the ENR-only condition
impact on phenotype rescue (proportion of irregularly shaped to spherical organoids) (human duodenum organoids [2]; WNT3A restored on day 6): little impact
HMM cluster transition graph (human duodenum organoids [2]; WNT3A restored on day 9): introduces two new transitions, cluster 5-to-3 and cluster 4-to-2
impact on phenotype rescue (proportion of irregularly shaped to spherical organoids) (human duodenum organoids [2]; WNT3A restored on day 9): minimal impact
formation of morphologically flattened irregular organoids (human duodenum organoids [2]; WNT3A restored to ENR medium at day 3): largely prevented
induction of RSCs leading to morphologically irregular and flattened organoids in WNT-deprived ENR medium (human duodenum organoids [3]): can be prevented
